Source: patent publication US20220211605A1, “AGENT FOR PROTECTION AGAINST ATMOSPHERIC POLLUTANTS AND COMPOSITION FOR PROTECTION AGAINST ATMOSPHERIC POLLUTANTS” (SHOWA DENKO K.K., priority 2019, published 2022)

Key:
NRF2 gene = test: Effect of promoting expression of NRF2 gene (quantitative real-time PCR, standardized to GAPDH) in NHEK exposed to atmospheric dust; assay type: cell-based, human; settings: sample 10 μM for 24 hours, then atmospheric dust added 500 μg/mL for 48 hours, relative to control without atmospheric dust = 1
Protocol: The effect of Na tocopherol phosphate on promoting the expression of an NRF2 gene in normal human epidermal keratinocytes (NHEK, manufactured by KURABO INDUSTRIES LTD.) was measured under the following conditions.
The NHEK cells were seeded in a HuMedia KG2 medium manufactured by KURABO INDUSTRIES LTD. at the seeding density of 10000 cells/cm^2, and cultured for 24 hours under the conditions of 37° C. and 5% CO2. Next, a sample, in which Na tocopherol phosphate or tocopherol acetate was dissolved in an aqueous solution of 0.05% (V/V) ethanol, was added to the culture medium so that the final concentration of Na tocopherol phosphate or tocopherol acetate was 10 μM, and culturing was performed for 24 hours. Furthermore, one obtained by adding 5 μL of the aqueous solution of 0.05% (V/V) ethanol to the culture medium and culturing for 24 hours was also prepared. […] Using this cDNA as a template, the expression level of the NRF2 gene was quantitatively determined by quantitative real-time PCR using a primer specific to the NRF2 gene (Perfect Real Time Primer, manufactured by Takara Bio Inc.). As an internal standard gene, the expression level of GAPDH was quantitatively determined (primer used: Perfect Real Time Primer, manufactured by Takara Bio Inc.), and the expression level of the NRF2 gene was standardized based on the expression level of GAPDH. […]

[1] = system: normal human epidermal keratinocytes (NHEK); test: Effect of suppressing ROS production (dichlorofluorescein diacetate ROS assay kit) in NHEK exposed to atmospheric dust; assay type: cell-based; settings: sample 10 μM for 24 hours, then atmospheric dust (NIST 1648a) added 500 μg/mL for 48 hours, fluorescence relative to control without atmospheric dust = 1
Protocol: The effect of Na tocopherol phosphate on suppressing ROS production in normal human epidermal keratinocytes (NHEK, manufactured by KURABO INDUSTRIES LTD.) was measured under the following conditions.
The NHEK cells were seeded in a HuMedia KG2 medium manufactured by KURABO INDUSTRIES LTD. at the seeding density of 10000 cells/cm^2, and cultured for 24 hours under the conditions of 37° C. and 5% CO2. Next, a sample, in which Na tocopherol phosphate or tocopherol acetate was dissolved in an aqueous solution of 0.05% (V/V) ethanol, was added to the culture medium so that the final concentration of Na tocopherol phosphate or tocopherol acetate was 10 μM, and culturing was performed for 24 hours under the conditions of 37° C. and 5% CO2. Furthermore, one obtained by adding 1 μL of the aqueous solution of 0.05% (V/V) ethanol to the culture medium and culturing for 24 hours was also prepared. […] Thereafter, the ROS production amount was measured using a ROS assay kit (manufactured by OZ BIOSCIENCES). […] After washing with PBS again, 100 μL of PBS was added, and the fluorescence intensity at an excitation wavelength of 485 nm/an absorption wavelength of 535 nm was measured with a microplate reader i-Control (manufactured by Tecan Group Ltd.). […]

[2] = system: cell line derived from Lewis lung carcinoma (LLC); test: Effect of suppressing proliferation of cancer cells (WST-8) exposed to atmospheric dust; assay type: cell-based; settings: sample 10 μM for 24 hours, then atmospheric dust (NIST 1648a) added 500 μg/mL for 48 hours, absorbance 450 nm relative to control without atmospheric dust = 1
Protocol: The effect of Na tocopherol phosphate on suppressing the proliferation of cancer cells in a cell line derived from Lewis lung carcinoma (LLC, JCRB Cell Bank) was measured under the following conditions.
The LLC cells were seeded at the seeding density of 50000 cells/cm^2 in a culture medium in which a Ham F10 medium and an L15 medium (both manufactured by Sigma-Aldrich) were mixed at the ratio of 3:7 (volume ratio), and cultured for 24 hours under the conditions of 37° C. and 5% CO2. Next, a sample, in which Na tocopherol phosphate or tocopherol acetate was dissolved in an aqueous solution of 0.05% (V/V) ethanol, was added to the culture medium so that the final concentration of Na tocopherol phosphate or tocopherol acetate was 10 μM, and culturing was performed for 24 hours. Furthermore, one obtained by adding 1 μL of the aqueous solution of 0.05% (VN) ethanol to the culture medium and culturing for 24 hours was also prepared. […] Thereafter, the culture medium was replaced with a medium containing 10% (VN) of WST-8 of Nacalai Tesque Inc., and after further culturing for 3 hours, the absorbance at the wavelength of 450 nm was measured with a microplate reader i-Control (manufactured by Tecan Group Ltd.). […]

[3] = system: cell line derived from Lewis lung carcinoma (LLC); test: Effect of suppressing invasion of cancer cells (CytoSelect invasion assay kit) exposed to atmospheric dust; assay type: cell-based; settings: sample 10 μM for 24 hours, then atmospheric dust (NIST 1648a) added 500 μg/mL for 6 hours + 18 hours, fluorescence relative to control without atmospheric dust = 1
Protocol: The effect of Na tocopherol phosphate on suppressing the invasion of cells in a cell line derived from Lewis lung carcinoma (LLC, JCRB Cell Bank) was measured under the following conditions. A CytoSelect invasion assay kit manufactured by Cell Biolabs, Inc. was used for a test.
The LLC cells were seeded in a chamber plate for invasion tests attached to the above-mentioned invasion assay kit so that the concentration was 100000 cells/mL using a culture medium in which a Ham F10 medium and an L15 medium (both manufactured by Sigma-Aldrich) were mixed at the ratio of 3:7 (volume ratio), and cultured for 24 hours under the conditions of 37° C. and 5% CO2. Next, a sample, in which Na tocopherol phosphate or tocopherol acetate was dissolved in an aqueous solution of 0.05% (V/V) ethanol, was added to the culture medium so that the final concentration of Na tocopherol phosphate or tocopherol acetate was 10 μM, and culturing was further performed for 24 hours under the conditions of 37° C. and 5% CO2. […] Thereafter, the cells were stained using the above-mentioned invasion assay kit, and the fluorescence intensity at an excitation wavelength of 480 nm/an absorption wavelength of 570 nm was measured with a microplate reader i-Control (manufactured by Tecan Group Ltd.). […]

CC(=O)Oc1c(C)c(C)c2c(c1C)CCC(C)(CCC[C@H](C)CCC[C@H](C)CCCC(C)C)O2 (stereo partly shown) [Tocopherol acetate, tocopherol acetate]
Relative gene expression level NRF2 (NRF2 gene): 0.71
Relative ROS production amount [1]: 1.67
Relative cell proliferation amount [2]: 3.98
Relative cell invasion [3]: 2.08
